From ChEMBL document CHEMBL1221172, “Identification of a specific inhibitor of the histone methyltransferase SU(VAR)3-9” (Nat Chem Biol, 2005)
Active and inactive are the calls of the source. No cut-off for these calls is given here.

Assays:
[1] = target: Histone-lysine N-methyltransferase Su(var)3-9 (Drosophila melanogaster) (UniProt P45975); settings: SL2, 0.5 uM
Description: Inhibition of SU(VAR)3-9 in Drosophila melanogaster SL2 cells assessed as inhibition of methylation at Lys79in Histone H3 at 0.5 uM by Western blot method

[2] = target: Histone-lysine N-methyltransferase Su(var)3-9 (Drosophila melanogaster) (UniProt P45975); settings: SL2, 0.5 uM; remark: listed apart in the source
Description: Inhibition of SU(VAR)3-9 in Drosophila melanogaster SL2 cells assessed as inhibition of methylation at Lys36 in Histone H3 at 0.5 uM by MALDI-TOF MS

[3] = target: Histone-lysine N-methyltransferase Su(var)3-9 (Drosophila melanogaster) (UniProt P45975); settings: SL2, 0.5 uM; remark: listed apart in the source
Description: Inhibition of SU(VAR)3-9 in Drosophila melanogaster SL2 cells assessed as reduction of H3K9me3 at 0.5 uM by immunostaining method

[4] = target: Histone-lysine N-methyltransferase Su(var)3-9 (Drosophila melanogaster) (UniProt P45975); settings: SL2, 0.5 uM; remark: listed apart in the source
Description: Inhibition of SU(VAR)3-9 in Drosophila melanogaster SL2 cells assessed as inhibition of methylation at Lys36 in Histone H3 at 0.5 uM by Western blot method

[5] = target: T1, Histone-lysine N-methyltransferase Set8 (Drosophila melanogaster, UniProt Q9VFK6); assay: Inhibition of Drosophila melanogaster PRSET2
T1 sequence (Q9VFK6 whole entry): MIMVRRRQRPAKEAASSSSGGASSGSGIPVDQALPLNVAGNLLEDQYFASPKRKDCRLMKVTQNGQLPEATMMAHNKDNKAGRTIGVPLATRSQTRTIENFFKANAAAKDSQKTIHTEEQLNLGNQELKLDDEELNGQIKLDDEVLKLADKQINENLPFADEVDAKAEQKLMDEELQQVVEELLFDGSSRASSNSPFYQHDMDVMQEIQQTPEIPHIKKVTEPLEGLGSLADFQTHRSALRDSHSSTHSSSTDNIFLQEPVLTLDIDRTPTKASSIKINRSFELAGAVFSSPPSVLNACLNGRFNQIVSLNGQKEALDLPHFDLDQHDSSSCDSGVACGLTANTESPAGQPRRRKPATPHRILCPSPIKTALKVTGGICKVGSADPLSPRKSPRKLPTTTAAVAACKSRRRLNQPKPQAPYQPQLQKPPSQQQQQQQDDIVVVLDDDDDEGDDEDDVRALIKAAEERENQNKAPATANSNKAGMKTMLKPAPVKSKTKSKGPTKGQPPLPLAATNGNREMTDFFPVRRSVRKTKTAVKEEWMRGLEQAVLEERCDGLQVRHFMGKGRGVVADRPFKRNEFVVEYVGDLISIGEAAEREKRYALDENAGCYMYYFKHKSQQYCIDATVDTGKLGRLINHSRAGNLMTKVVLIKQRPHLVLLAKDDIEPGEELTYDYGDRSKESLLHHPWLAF

[6] = target: Histone-lysine N-methyltransferase Su(var)3-9 (Drosophila melanogaster) (UniProt P45975); settings: SL2, 0.5 uM; remark: listed apart in the source
Description: Inhibition of SU(VAR)3-9 in Drosophila melanogaster SL2 cells assessed as inhibition of methylation at Lys79in Histone H3 at 0.5 uM by MALDI-TOF MS

[7] = target: Histone-lysine N-methyltransferase Su(var)3-9 (Drosophila melanogaster) (UniProt P45975); settings: SL2, 0.5 uM; remark: listed apart in the source
Description: Inhibition of SU(VAR)3-9 in Drosophila melanogaster SL2 cells assessed as inhibition of methylation at Lys4in Histone H3 at 0.5 uM by Western blot method

[8] = target: Histone-lysine N-methyltransferase Su(var)3-9 (Drosophila melanogaster) (UniProt P45975); settings: SL2, 0.5 uM; remark: listed apart in the source
Description: Inhibition of SU(VAR)3-9 in Drosophila melanogaster SL2 cells assessed as inhibition of methylation at Lys27 in Histone H3 at 0.5 uM by MALDI-TOF MS

[9] = target: T2, Histone-lysine N-methyltransferase, H3 lysine-9 specific dim-5 (Neurospora crassa, UniProt Q8X225); assay: Inhibition of Neurospora crassa DIM5
T2 sequence (Q8X225 whole entry): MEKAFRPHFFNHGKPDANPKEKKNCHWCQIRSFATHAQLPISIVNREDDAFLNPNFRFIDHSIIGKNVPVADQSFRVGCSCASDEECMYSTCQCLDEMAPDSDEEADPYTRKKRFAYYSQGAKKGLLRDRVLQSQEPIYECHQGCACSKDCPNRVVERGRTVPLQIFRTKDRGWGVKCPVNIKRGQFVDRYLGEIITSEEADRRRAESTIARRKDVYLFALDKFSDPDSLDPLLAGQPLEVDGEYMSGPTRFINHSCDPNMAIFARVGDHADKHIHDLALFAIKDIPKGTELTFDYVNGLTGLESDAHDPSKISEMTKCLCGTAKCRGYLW

SL-2 [10] = assay: Cytotoxicity against Drosophila melanogaster SL-2 cells seeded at low density; type: cell-based
[11] = target: Histone-lysine N-methyltransferase Su(var)3-9 (Drosophila melanogaster) (UniProt P45975); settings: SL2, 0.5 uM; remark: listed apart in the source
Description: Inhibition of SU(VAR)3-9 in Drosophila melanogaster SL2 cells assessed as reduction of H3K9me2 at 0.5 uM after 5 days by MALDI-TOF MS seeded at 2.5 million cells/ml density

[12] = Inhibition of human SU(VAR)3-9
[13] = target: Histone-lysine N-methyltransferase Su(var)3-9 (Drosophila melanogaster, UniProt P45975); assay: Inhibition of Drosophila melanogaster SU(VAR)3-9
[14] = Inhibition of Drosophila melanogaster SET7/9
[15] = target: Histone-lysine N-methyltransferase Su(var)3-9 (Drosophila melanogaster) (UniProt P45975); settings: SL2, 0.5 uM; remark: listed apart in the source
Description: Inhibition of SU(VAR)3-9 in Drosophila melanogaster SL2 cells assessed as inhibition of methylation at Lys27 in Histone H3 at 0.5 uM by Western blot method

SL-2 [16] = assay: Cytotoxicity against Drosophila melanogaster SL-2 cells seeded at high density assessed as growth retardation for 24 to 48 hrs up to 0.5 uM; type: cell-based
[17] = target: Histone-lysine N-methyltransferase Su(var)3-9 (Drosophila melanogaster) (UniProt P45975); settings: SL2, 0.1 uM
Description: Inhibition of SU(VAR)3-9 in Drosophila melanogaster SL2 cells assessed as reduction of H3K9me2 at 0.1 uM after 5 days by MALDI-TOF MS seeded at 2.5 million cells/ml density

[18] = target: Histone-lysine N-methyltransferase Su(var)3-9 (Drosophila melanogaster) (UniProt P45975); settings: SL2, 0.5 uM; remark: listed apart in the source
Description: Inhibition of SU(VAR)3-9 in Drosophila melanogaster SL2 cells assessed as inhibition of methylation at Lys4in Histone H3 at 0.5 uM by MALDI-TOF MS

[19] = target: Histone-lysine N-methyltransferase E(z) (Drosophila melanogaster, UniProt P42124); assay: Inhibition of Drosophila melanogaster histone-lysine N-methyl-transferase E(z)
[20] = target: T3, Histone-lysine N-methyltransferase EHMT2 (Mus musculus, UniProt Q9Z148); assay: Inhibition of mouse G9a
T3 sequence (Q9Z148 whole entry): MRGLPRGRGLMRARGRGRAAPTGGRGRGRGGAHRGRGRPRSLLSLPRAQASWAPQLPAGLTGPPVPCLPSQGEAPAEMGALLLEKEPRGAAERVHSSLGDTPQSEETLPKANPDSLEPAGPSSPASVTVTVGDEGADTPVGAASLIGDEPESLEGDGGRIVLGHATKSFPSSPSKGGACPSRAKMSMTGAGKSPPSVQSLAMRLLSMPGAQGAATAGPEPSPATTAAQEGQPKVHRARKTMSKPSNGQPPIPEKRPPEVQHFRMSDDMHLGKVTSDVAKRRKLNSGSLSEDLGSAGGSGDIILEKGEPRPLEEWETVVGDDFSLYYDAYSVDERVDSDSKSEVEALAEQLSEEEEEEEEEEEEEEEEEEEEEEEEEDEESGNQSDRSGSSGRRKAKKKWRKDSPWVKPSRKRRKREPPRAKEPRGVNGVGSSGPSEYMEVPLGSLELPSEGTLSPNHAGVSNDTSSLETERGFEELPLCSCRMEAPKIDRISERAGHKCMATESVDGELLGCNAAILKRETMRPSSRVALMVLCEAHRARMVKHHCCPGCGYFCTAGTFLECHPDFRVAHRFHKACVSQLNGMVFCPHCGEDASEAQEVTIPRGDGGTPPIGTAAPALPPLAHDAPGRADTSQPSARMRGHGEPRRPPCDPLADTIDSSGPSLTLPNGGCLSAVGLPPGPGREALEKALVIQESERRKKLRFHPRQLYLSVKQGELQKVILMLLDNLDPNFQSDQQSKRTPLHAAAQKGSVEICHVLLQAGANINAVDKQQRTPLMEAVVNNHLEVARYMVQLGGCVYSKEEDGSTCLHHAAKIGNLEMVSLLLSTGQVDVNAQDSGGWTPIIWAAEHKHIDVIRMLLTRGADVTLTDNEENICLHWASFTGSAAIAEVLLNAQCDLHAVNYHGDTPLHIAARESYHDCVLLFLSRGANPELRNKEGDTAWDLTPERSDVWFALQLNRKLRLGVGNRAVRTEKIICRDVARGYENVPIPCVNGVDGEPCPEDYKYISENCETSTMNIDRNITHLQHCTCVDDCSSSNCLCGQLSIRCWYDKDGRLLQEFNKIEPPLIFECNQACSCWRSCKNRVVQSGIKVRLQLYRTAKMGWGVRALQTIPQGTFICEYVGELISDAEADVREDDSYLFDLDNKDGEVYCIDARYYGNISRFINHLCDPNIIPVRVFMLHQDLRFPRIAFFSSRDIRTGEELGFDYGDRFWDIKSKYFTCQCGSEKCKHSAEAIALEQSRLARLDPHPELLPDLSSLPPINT

Histone-lysine N-methyltransferase Su(var)3-9 (Drosophila melanogaster), sequence (P45975 whole entry): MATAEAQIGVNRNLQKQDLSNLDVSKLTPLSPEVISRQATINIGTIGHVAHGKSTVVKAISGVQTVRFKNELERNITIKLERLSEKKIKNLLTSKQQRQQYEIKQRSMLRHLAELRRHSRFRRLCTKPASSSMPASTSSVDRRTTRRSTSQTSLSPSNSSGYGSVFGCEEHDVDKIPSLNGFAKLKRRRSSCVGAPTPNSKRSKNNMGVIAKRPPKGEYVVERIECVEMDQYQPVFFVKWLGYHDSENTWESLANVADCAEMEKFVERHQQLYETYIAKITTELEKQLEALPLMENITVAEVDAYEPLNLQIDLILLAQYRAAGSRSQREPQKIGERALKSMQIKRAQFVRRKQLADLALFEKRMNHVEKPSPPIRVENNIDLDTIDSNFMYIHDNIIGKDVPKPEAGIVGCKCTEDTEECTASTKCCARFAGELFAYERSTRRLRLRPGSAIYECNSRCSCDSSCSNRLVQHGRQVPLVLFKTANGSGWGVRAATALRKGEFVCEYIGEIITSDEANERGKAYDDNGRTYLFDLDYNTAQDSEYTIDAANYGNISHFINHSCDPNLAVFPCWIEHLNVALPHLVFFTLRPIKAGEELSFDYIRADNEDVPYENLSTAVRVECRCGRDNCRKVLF
Histone-lysine N-methyltransferase E(z), sequence (P42124 whole entry): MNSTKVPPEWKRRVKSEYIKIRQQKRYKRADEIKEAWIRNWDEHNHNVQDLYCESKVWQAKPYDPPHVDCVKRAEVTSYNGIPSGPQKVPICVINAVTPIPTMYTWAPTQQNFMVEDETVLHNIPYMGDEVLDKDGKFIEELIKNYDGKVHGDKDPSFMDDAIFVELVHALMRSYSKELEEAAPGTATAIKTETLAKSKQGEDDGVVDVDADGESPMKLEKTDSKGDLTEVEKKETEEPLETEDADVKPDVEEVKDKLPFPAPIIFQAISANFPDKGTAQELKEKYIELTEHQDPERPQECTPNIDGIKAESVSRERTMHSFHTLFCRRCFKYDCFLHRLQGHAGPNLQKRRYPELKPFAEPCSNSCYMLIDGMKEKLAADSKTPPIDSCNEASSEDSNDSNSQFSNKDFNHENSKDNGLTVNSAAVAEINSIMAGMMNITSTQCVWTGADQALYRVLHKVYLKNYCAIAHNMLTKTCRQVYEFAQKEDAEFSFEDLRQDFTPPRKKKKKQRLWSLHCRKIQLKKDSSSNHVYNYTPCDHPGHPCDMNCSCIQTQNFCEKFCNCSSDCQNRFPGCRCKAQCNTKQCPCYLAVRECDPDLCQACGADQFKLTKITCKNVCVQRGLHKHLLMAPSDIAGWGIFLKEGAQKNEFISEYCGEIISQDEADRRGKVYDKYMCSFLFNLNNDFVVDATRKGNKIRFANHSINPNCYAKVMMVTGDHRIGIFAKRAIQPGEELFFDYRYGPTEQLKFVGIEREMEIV
Histone-lysine N-methyltransferase Su(var)3-9, sequence (P45975 whole entry): as the sequence (P45975 whole entry) above

Question: What does the source list for `CN1C(=O)[C@@]23C[C@]4([C@]56C[C@@]78SS[C@@](CO)(C(=O)N7[C@H]5Nc5ccccc56)N(C)C8=O)c5ccccc5N[C@@H]4N2C(=O)[C@]1(CO)SS3` [CHAETOCIN]?
Answer: inhibition [1]: inactive; inhibition [2]: inactive; inhibition [3]: Active; inhibition [4]: inactive; IC50 [5]: > 180 µM; inhibition [6]: inactive; inhibition [7]: inactive; inhibition [8]: inactive; IC50 [9]: 3 µM; Activity (SL-2 [10]): Toxic; inhibition [11]: Active; IC50 [12]: 0.8 µM; IC50 [13]: 0.6 µM; IC50 [14]: > 180 µM; inhibition [15]: inactive; Activity (SL-2 [16]): Non-toxic; inhibition [17]: Active; inhibition [18]: inactive; IC50 [19]: > 90 µM; IC50 [20]: 2.5 µM
